Reference: publication PMC10907494, “Applications of biaryl cyclization in the synthesis of cyclic enkephalin analogs with a highly restricted flexibility” (Amino Acids, 2024)
Marks after values point to notes of the source that are not given here.

Molecular target: μ-opioid receptor (MOR) (Rattus norvegicus, UniProt P33535)
Assay: biochemical
Conditions: for Radioligand SB at 30 μM of ligand (% of radioligand specific binding): mean and standard deviation; for % of radioligand specific binding at 3 μM, mean / % of radioligand specific binding at 10 μM, mean / % of radioligand specific binding at 30 μM, mean: initial screening; for MOR binding, times weaker than that of the linear counterpart: ratio of IC50 values, cyclic analog vs its linear counterpart
Procedure: The binding affinity of cyclic and linear enkephalin analogs for μ-opioid receptor (MOR) was determined in competitive radioligand binding assays using membrane preparations from rat brain homogenates. The homogenates were obtained as described previously (Matalińska et al. [2020]). The membrane preparations were incubated at 25 °C for 60 min in the presence of 1.0 nM [^3H]DAMGO (obtained from PerkinElmer, USA) and the set of concentrations of the assayed compound proper for a particular compound and type of determination (screening or a full-displacement curve).
For screening purposes, we performed the experiments with the following concentrations of the compounds tested: 30 μM, 10 μM, and 3 μM. For full-displacement curves, 10 concentrations ranging either from 0.03 nM to 1 μM or from 300 nM to 30 μM were used. The range was chosen for the single compounds in a manner such that the expected IC50 would fall in the middle of the range. In the case of several experiments, only five concentrations were used (they are marked in the results table).
Non-specific binding was measured in the presence of 10 μM naloxone. The assays were conducted with the assay buffer made of 50 mM Tris–HCl (pH 7.4), bacitracin (100 μg/ml), bestatin (30 μM), and captopril (10 μM), phenylmethylsulfonyl fluoride (PMSF, 30 μg/ml) in a total volume of 0.5 ml. After the incubation, a rapid filtration with a M-24 Cell Harvester (Brandel/USA) through GF/B Whatman glass fiber strips was conducted. The filters were soaked with 0.5% PEI just before the harvesting so as to minimize the extent of non-specific binding. Filter disks were cut from the sheet and placed separately in 24-well plates. The Optiphase Supermix scintillation solution (Perkin Elmer, USA) was added to each well. Radioactivity was measured in a scintillation counter MicroBeta LS, Trilux (PerkinElmer, USA). Displacement curves were drawn and the mean IC50 values were determined with SEMs (GraphPad Prism v. 5.0, San Diego, CA).

[1] = IC50 (estimation based on the screening results), estimated from screening at 30 μM, 10 μM and 3 μM, [3H]DAMGO, rat brain membranes
[2] = IC50 ± S.E.M., full-displacement curves, 1.0 nM [3H]DAMGO, rat brain membranes, 25 °C, 60 min, mean of 2 or 3 experiments unless footnoted
[3] = estimated IC50, estimated from initial screening at 30, 10 and 3 μM

Chain of μ-opioid receptor (MOR) (P33535 whole entry): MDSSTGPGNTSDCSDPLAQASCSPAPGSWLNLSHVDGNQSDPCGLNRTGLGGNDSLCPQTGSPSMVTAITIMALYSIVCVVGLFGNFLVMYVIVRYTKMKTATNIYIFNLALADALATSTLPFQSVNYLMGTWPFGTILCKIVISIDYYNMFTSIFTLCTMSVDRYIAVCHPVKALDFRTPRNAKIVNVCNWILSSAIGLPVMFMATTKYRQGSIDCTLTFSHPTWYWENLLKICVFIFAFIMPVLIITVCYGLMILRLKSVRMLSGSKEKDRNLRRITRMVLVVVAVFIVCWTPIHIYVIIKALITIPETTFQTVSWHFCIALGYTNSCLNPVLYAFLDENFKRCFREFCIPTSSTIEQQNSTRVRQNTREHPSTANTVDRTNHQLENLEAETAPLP

CC(C)C[C@H](NC(=O)[C@@H]1Cc2ccc(O)c(c2)-c2cc(ccc2O)C[C@H](N)C(=O)NCC(=O)NCC(=O)N1)C(N)=O [c-(Tyr-m-Tyr-m)-L-NH2, H-(cyclo-m,m)-[Tyr-Gly-Gly-Tyr]-Leu-NH2]
Radioligand SB at 30 μM of ligand (% of radioligand specific binding) ([3H]DAMGO): 117 ± 1% | IC50 [1]: > 30000 nM | % of radioligand specific binding at 3 μM, mean: 87% | % of radioligand specific binding at 10 μM, mean: 102% | % of radioligand specific binding at 30 μM, mean: 117%

CC(C)C[C@H](NC(=O)[C@@H]1Cc2ccc(cc2)-c2ccc(cc2)C[C@H](N)C(=O)NCC(=O)NCC(=O)N1)C(N)=O [c-(Phe-p-Phe-p)-L-NH2, H-(cyclo-p,p)-[Phe-Gly-Gly-Phe]-Leu-NH2]
Radioligand SB at 30 μM of ligand (% of radioligand specific binding) ([3H]DAMGO): 73 ± 19% | IC50 [1]: > 30000 nM | % of radioligand specific binding at 3 μM, mean: 110% | % of radioligand specific binding at 10 μM, mean: 78% | % of radioligand specific binding at 30 μM, mean: 73%

CSCC[C@H](NC(=O)[C@@H]1Cc2ccc(cc2)-c2cc(ccc2O)C[C@H](N)C(=O)NCC(=O)NCC(=O)N1)C(N)=O [c-(Tyr-m-Phe-p)-M-NH2, H-(cyclo-m,p)-[Tyr-Gly-Gly-Phe]-Met-NH2]
Radioligand SB at 30 μM of ligand (% of radioligand specific binding) ([3H]DAMGO): 12 ± 4% | IC50 [2]: 1370 ± 266 nM | IC50 [3]: ~1000 nM | % of radioligand specific binding at 3 μM, mean: 49% | % of radioligand specific binding at 10 μM, mean: 34% | % of radioligand specific binding at 30 μM, mean: 12% | MOR binding, times weaker than that of the linear counterpart: ~500 times

CC(C)C[C@H](NC(=O)[C@@H]1Cc2cccc(c2)-c2cc(ccc2O)C[C@H](N)C(=O)NCC(=O)NCC(=O)N1)C(N)=O [c-(Tyr-m-Phe-m)-L-NH2, H-(cyclo-m,m)-[Tyr-Gly-Gly-Phe]-Leu-NH2]
Radioligand SB at 30 μM of ligand (% of radioligand specific binding) ([3H]DAMGO): 12 ± 3% | IC50 [2]: 3080 nM | % of radioligand specific binding at 3 μM, mean: 64% | % of radioligand specific binding at 10 μM, mean: 28% | % of radioligand specific binding at 30 μM, mean: 12% | MOR binding, times weaker than that of the linear counterpart: ~500 times

CC(C)C[C@H](NC(=O)[C@@H]1Cc2ccc(cc2)-c2cc(ccc2O)C[C@H](N)C(=O)NCC(=O)NCC(=O)N1)C(N)=O [c-(Tyr-m-Phe-p)-L-NH2, H-(cyclo-m,p)-[Tyr-Gly-Gly-Phe]-Leu-NH2]
Radioligand SB at 30 μM of ligand (% of radioligand specific binding) ([3H]DAMGO): 77 ± 4% | IC50 [1]: > 30000 nM | % of radioligand specific binding at 3 μM, mean: 99% | % of radioligand specific binding at 10 μM, mean: 78% | % of radioligand specific binding at 30 μM, mean: 77%

H-FGGFL-NH2 [[Phe^1,Leu^5]enk-NH2, H-Phe-Gly-Gly-Phe-Leu-NH2, reference compound]
Radioligand SB at 30 μM of ligand (% of radioligand specific binding) ([3H]DAMGO): 5 ± 1% | IC50 [2]: 596 ± 48.8 nM | IC50 [3]: < 3000 nM | % of radioligand specific binding at 3 μM, mean: 26^c) % | % of radioligand specific binding at 10 μM, mean: 13^c) % | % of radioligand specific binding at 30 μM, mean: 5^c) %

H-(cyclo-m,p)-[Tyr-Gly-Gly-Phe]-Leu-OH [c-(Tyr-m-Phe-p)-L-OH]
Radioligand SB at 30 μM of ligand (% of radioligand specific binding) ([3H]DAMGO): 36 ± 6% | % of radioligand specific binding at 3 μM, mean: 88% | % of radioligand specific binding at 10 μM, mean: 60% | % of radioligand specific binding at 30 μM, mean: 36%

H-Phe-Gly-Gly-Tyr-Leu-NH2 (H-FGGYL-NH2) [[Phe^1,Tyr^4,Leu^5]enk-NH2, reference compound]
Radioligand SB at 30 μM of ligand (% of radioligand specific binding) ([3H]DAMGO): 43 ± 11% | % of radioligand specific binding at 3 μM, mean: 85% | % of radioligand specific binding at 10 μM, mean: 61% | % of radioligand specific binding at 30 μM, mean: 43%

H-YGGYL-NH2 [[Tyr^4,Leu^5]enk-NH2, H-Tyr-Gly-Gly-Tyr-Leu-NH2, reference compound]
IC50 [2]: 222 ± 15.9 nM | MOR binding reduced, times, compared to the parent [Leu^5]enk-NH2 (ratio of IC50 values vs [Leu^5]enk-NH2): about 40 times

CC(C)C[C@H](NC(=O)[C@@H]1Cc2ccc(O)c(c2)-c2ccc(cc2)C[C@H](N)C(=O)NCC(=O)NCC(=O)N1)C(N)=O [c-(Phe-p-Tyr-m)-L-NH2, H-(cyclo-p,m)-[Phe-Gly-Gly-Tyr]-Leu-NH2]
Radioligand SB at 30 μM of ligand (% of radioligand specific binding) ([3H]DAMGO): 17 ± 3% | IC50 [2]: 6670 ± 262 nM | % of radioligand specific binding at 3 μM, mean: 62^c) % | % of radioligand specific binding at 10 μM, mean: 34^c) % | % of radioligand specific binding at 30 μM, mean: 17^c) %
